Consider four compounds from patent publication US20220241247A1, “PHARMACOLOGICAL AGENTS FOR TREATING PROTEIN AGGREGATION DISEASES OF THE EYE” (PLEX PHARMACEUTICALS, INC., priority 2019, published 2022).

For data set [1], the target named is T1, AAC (Homo sapiens, UniProt P02489).
T1 sequence (P02489 1-173): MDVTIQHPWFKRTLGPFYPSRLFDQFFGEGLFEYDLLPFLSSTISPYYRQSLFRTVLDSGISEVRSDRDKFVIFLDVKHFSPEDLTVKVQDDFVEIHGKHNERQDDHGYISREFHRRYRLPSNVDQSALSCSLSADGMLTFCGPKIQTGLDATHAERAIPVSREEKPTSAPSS
Put plainly: UV-induced aggregation of hAAC, measured by absorbance. The data set is classed as biochemical. On the procedure: (§1) It was determined that CAP4349 protects hAAC from UV-induced aggregation in a concentration-dependent manner. The meglumine salt of Tafamidis (CAP4349-M) was tested for its ability to prevent hAAC aggregation using SDS/PAGE and absorbance.
In another study, hAAC, with or without CAP4349-M, was exposed to UV light for 60 minutes and the resulting aggregation was measured by absorbance. The results are shown in FIG. 1B in terms of mean percentage absorbance change±SD (n=3 or 4). The EC50 value, which is the half-maximal response of hAAC aggregation, was determined to be19.7(±1.4) μM.

For data set [2], the target named is T1, AAC. Put plainly: UV-induced aggregation of hAAC, SDS-PAGE. Format: biochemical. The note with it: UV light 15 minutes; 0-1000 μM; 4-20% SDS-PAGE. On the procedure: as §1
hAAC, with or without CAP4349-M (meglumine salt, 0-1000 μM), was exposed to UV light for 15 minutes and analyzed on a 4-20% gradient SDS-PAGE gel.

For data set [3] the following is noted: Drug bank value; cited from earlier work.
In data set [4] the test system is bovine lens soluble extracts. Put plainly: UV-induced opacification of bovine lens lysate. Format: biochemical. The note with it: UV radiation. An excerpt: (§2) Both bovine and human lens lysates contain AAC as well as multiple endogenous client proteins, all of which are present at physiological ratios in a physiologically-relevant milieu of ions, redox pairs and antioxidants.

The subject of data set [5] is human lens soluble extracts. The data set can be described thus: UV-induced opacification of human lens lysate. To be noted: UV radiation. Format: biochemical.
Text: as §2

Data set [6] relates to HLE cell line SRA 01/04 cells. Put plainly: Heat-induced cell death of human lens epithelial cells. The data set is classed as cell-based. To be noted: pre-incubated 2 hours; 50° C. for 40 m. The source says: (§3) Efficacy of CAP4349 in protection of human lens epithelial cells from stress, as a measure of cellular AC function: Heating of intact human lenses dramatically promotes conversion of soluble AC into HMW aggregates and AC is responsible for protecting human lens epithelial (HLE) cells from thermal stress induced cell death (Peschek J et al. (2009), Proc. Natl. Acad. Sci. USA. 106(32):13272-13277). Survival of HLE cells following UV stress also depends on AC activity (Kumar P. et al., (2007) Biochem. J., 408:251-258). Assays for measuring cell-survival assays following heat or UV exposure were developed as a potential surrogate for AC chaperone activity. HLE cell line SRA 01/04 cells were pre-incubated for 2 hours with CAP4349 and then exposed to heat (50° C. for 40 m) or UV light (48 seconds).

Data set [7] has as its system HLE cell line SRA 01/04 cells. The data set can be described thus: UV-induced cell death of human lens epithelial cells. The data set is classed as cell-based. The note with it: pre-incubated 2 hours; UV light 48 seconds.
Text: as §3

Data set [8] addresses T1, AAC. Put plainly: Chaperone assay: UV-induced aggregation of BGC in presence of AAC. Format: biochemical. The note with it: UV radiation. The procedure:
(§4) Post translational modification, due to UV light, oxidation, glycation, crosslinking, and proteolysis can affect the CLA of AAC and its ability to prevent the aggregation of target proteins. These modifications lead to aggregation of other lens crystallins, which culminate in the development of lens opacity and cataract development. Since CAP4349 prevents aggregation of hACC, the effect of CAP4349 on the CLA activity of AAC was evaluated using in vitro chaperone assays with (i) lysozyme as a model client protein, and (ii) bovine γ-crystallin (BGC), as a physiologically relevant lenticular protein.
UV-Induced Aggregation of BGC: Exposure to UV radiation is a contributing factor to cataract formation. […]
The aggregation reaction was initiated by exposing the reaction mixture to UVB radiation. Aggregation was monitored for changes in light scattering by measuring absorbance at 600 nm at t=0, 15, 30 and 45 minutes. Mean percentage absorbance±SD from triplicate or quadruplicate wells plotted on a graph (FIG. 2C). EC50 value was calculated as 64.8 (±1.3) […], which is the concentration of CAP4349-M concentration producing half-maximal response of BGC aggregation in presence of AAC.

Data set [9] relates to HLE cell line SRA 01/04 cells. Put plainly: Viability of human lens epithelial cells under normal conditions. The data set is classed as cell-based. To be noted: no stress.
Text: as §3, with “HLE cell line SRA 01/04 cells were pre-incubated for 2 hours with CAP4349 and then exposed to heat (50° C. for 40 m) or UV light (48 seconds).” left out

Data set [10] deals with T1, AAC. The data set can be described thus: Chaperone assay: heat and DTT-induced aggregation of lysozyme in presence of AAC. The data set is classed as biochemical. The note with it: AAC 250, lysozyme 500 μg/ml; 10 mM DTT, 37° C.; absorbance at 400 nm. On the procedure: as §4
Heat-induced aggregation of lysozyme: In the presence of a reducing agent (DTT) and heat (37° C.), lysozyme undergoes denaturation and aggregation. The CLA activity of AAC can protect lysozyme against heat and DTT-induced aggregation (Robey, R. L. et al. (1997), Journal of Heterocyclic Chemistry, 34: (2)413-428).

In data set [11] the test system is AAC(R116C)-GFP in HeLa cells. Put plainly: High-content assay for AAC aggregation (p62-positive inclusions). Format: cell-based, human. To be noted: GFP fluorescence. On the procedure: Cellular effects of CAP4349 were evaluated using an automated high-content assay for AAC aggregation. AAC(R116C)-GFP has been reported to form p62 positive inclusions (p62 is known to co-localize with ubiquitinated aggregates in several protein aggregation diseases) (Neal R, et al. (2010) Mol. Vis. 16:2137-2145.). Experiments were carried out to determine whether CAP4349 had any effect on co-localization of AAC and p62 in HeLa cells.

Data set [12] is described as follows: Estimated maximum concentration in the lens after topical ophthalmic dosing. The note with it: meglumine formulated; topical ophthalmic bioavailability 2-5%. An excerpt:
(§5) Therefore, in order to improve the aqueous solubility and bioavailability, the present disclosure provides prodrugs of CAP4349.

For a further data set, the system named is porcine lenses. Put plainly: UV-induced opacification of porcine lenses ex vivo. To be noted: pretreated with 125 μM. On the procedure: Porcine lenses were pretreated with 125 μM CAP4349 (or vehicle) and UV irradiated (or not). Porcine lenses (Sierra for Medical Science, Inc., Whittier, CA) have been used previously in ex vivo models of cataracts (Raju, M. (2014) Biochemistry, 53(16):2615-2623.).

A short description of the next data set: Solubility. The data set is classed as physicochemical. To be noted: for solubility: disodium salt. On the procedure:
as §5
To a solution of Tafamidis, CAP4349 (308 mg) in DMF (10 mL) was added K2CO3 (220 mg) and KI (132 mg) followed by di-tert-butyl chloromethyl phosphate at room temperature while stirring. The reaction mixture was stirred at 70° C. for two hours. The reaction was quenched with ice and extracted three times in Ethyl Acetate. The combined organic layer was washed with water followed by 1% aqueous solution of sodium thiosulfate, and lastly with Brine, yielding the intermediate t-butyl protected phosphate. The t-butyl protected phosphate intermediate was converted to disodium salt in two steps by cleaving the protecting group with TFA followed by NaHCO3 treatment in the presence of water and THF resulting in disodium salt of CAP4357, as a white solid.

The mark [13] stands for this setting: versus meglumine salt of CAP4349.

Read-outs that look alike come from different tables or passages of the source.

On to `O=C(O)c1ccc2nc(-c3cc(Cl)cc(Cl)c3)oc2c1` [CAP4349-M], for which the EC50 on AAC [1] (UV light 60 minutes, absorbance, n=3 or 4, read-out: EC50, half-maximal response of hAAC aggregation) came out at 19.7 µM.

For the compound `CNC[C@H](O)[C@@H](O)[C@H](O)[C@H](O)CO.O=C(O)c1ccc2nc(-c3cc(Cl)cc(Cl)c3)oc2c1` [CAP4349-M], the “prevention of hAAC aggregation (band intensities of aggregated and non-aggregated form)” value at AAC [2] is listed as “dose-dependent prevention of hAAC aggregation”. Also, the maximum solubility in data set [3] is 0.0323 mg/mL.

For `O=C(O)c1ccc2nc(-c3cc(Cl)cc(Cl)c3)oc2c1` [CAP4349, 2-(3,5-dichlorophenyl) benzo[d]oxazole-6-carboxylic acid], the “protection of bovine lysate from UV-induced opacification” value in data set [4] was “protected both bovine (FIG. 5A) and human (FIG. 5B) lysates from UV-induced opacification in a dose-dependent manner”. Also, the “protection of human lysate from UV-induced opacification” value in data set [5] is “protected both bovine (FIG. 5A) and human (FIG. 5B) lysates from UV-induced opacification in a dose-dependent manner”. Further, the “protection from heat-induced cell death” value in data set [6] is “protects the cells from heat-induced and UV-induced cell death in a dose-dependent manner”. Further, the “protection from UV-induced cell death” value in data set [7] was “protects the cells from heat-induced and UV-induced cell death in a dose-dependent manner”. Moreover, the EC50 at AAC [1] (read-out: EC50 for the prevention of hACC aggregation (as restated in Example 7)) was 19.5 µM. For the same compound, at AAC [8], the “protection provided by AAC against UV-induced BGC aggregation” value is reported as “increased the protection provided by AAC against UV-induced BGC aggregation in a dose-dependent manner”. Also, the “viability under normal conditions” value in data set [9] is given as “does not alter the viability”. Further, the “protection of lysozyme from aggregation by AAC” value at AAC [10] was “increased protection of lysozyme from aggregation”. For the same compound, in [11], the “aggregates of AAC(R116C)-GFP co-localized with p62” value was “decreased”. Also, the “maximum concentration in the lens” value in data set [12] is listed as “about 5 μM”. Moreover, in the data set with porcine lenses, the “UV-induced opacification of porcine lenses” value is listed as “prevent UV-induced opacification”.

With `O=C(OCOP(=O)(O)O)c1ccc2nc(-c3cc(Cl)cc(Cl)c3)oc2c1.[Na+].[Na+]` [CAP4357], in “Solubility” (aqueous with cosolvent or surfactant or cyclodextrin, 5% aqueous (2-Hydroxypropyl)-β-cyclodextrin, read-out: solubility in 5% aqueous HPBCD), the solubility was 40 mg/mL. In addition, the solubility in “Solubility” (water, read-out: aqueous solubility) is 25 mg/mL. In the data set “Solubility” (setting [13]), the “fold increase in HPBCD solubility” value is reported as 1,238 fold and the “fold increase in aqueous solubility” value is 774 fold.
